The assay has as its system Balb/c to C57BL/6 skin graft. Kind of assay: Balb/c to C57BL/6 full-thickness skin graft survival. The assay is classed as in vivo, mouse. The note with it: oral, bid. The protocol:
Skin transplantation. Murine full-thickness allo-skin transplantation to study graft rejection was conducted according to a previously well-described protocol (Cheng et al, 2017). All procedures were conducted in accordance with the Guide for the Care and Use of Laboratory Animals of the National Institute of Health (NIH) and were approved by the animal ethics committee of Guangzhou University of Chinese Medicine.
Briefly, donor mice (Balb/c) were anesthetized with isoflurane (induction vaporizer at 4%, maintenance at 1-2% through the mouse cone). The toe pinch withdrawal reflex was used to monitor the depth of anesthesia. The back of the animal was shaved with an electric razor and disinfected with 10% povidone iodine. Using sterile scissors, gloves, and aseptic technique, donor back skin was harvested from the hip to the neck with blunt dissection at the level of the areolar connective tissue. After harvesting the skin graft, the animal was euthanized by cervical dislocation. Under a microscope, the connective tissue, fat tissue, and panniculus carnosus were separated from the back skin using fine tenotomy scissors. Using sterile technique, 15-mm×15-mm grafts were cut out from the back skin for a 10-mm×10-mm to 15-mm×15-mm graft bed (10 grafts were obtained from one donor mouse). The grafts were stored on gauze soaked with sterile phosphate-buffered saline (PBS) in a petri dish on ice.
The recipient mice (C57BL/6) were anesthetized with isoflurane. Buprenorphine (0.02 mg/kg) was administrated for postoperative pain relief. The side of the back of the animal where the graft will be inserted was shaved and disinfected with 10% povidone iodine. A 10-mm×10-mm to 15-mm×15-mm square of skin was intersected using scissors. The defect size was slightly larger (10%) than the graft. The graft was positioned on the graft bed avoiding folds along the edges. Eight sutures were placed on the corners and on the middle of each edge. […] When the graft was considered as successful, it was then monitored daily for signs of rejection. […]

SMILES strings stand for the structures.

From patent publication US20240335395A1, “COMPOSITIONS AND METHODS FOR PREVENTING AND/OR TREATING DISEASE ASSOCIATED WITH IL-23 EXPRESSION” (ALLSPIM, priority 2021, published 2024) come the findings set out here.

On to `COc1cc(O)c(OC)c(O)c1C(=O)/C=C/c1ccccc1` [2,4-D, 2′,4′-dihydroxy-3′,6′-dimethoxychalcone], for which the median graft survival is recorded as 15 days (2 mg/kg), 19 days (10 mg/kg) and 24 days (50 mg/kg).
